Test results published in patent publication US8415344B2, “Method of treating depression” (Brookhaven Science Associates, LLC, priority 2009, dated 2013).

How the values were obtained:
[1] = Rothstein et al.; Lipski et al.; cited from earlier work
[2] = test system: rats exhibiting learned helplessness (cLH rat line); experiment: Learned helplessness testing (lever-press escape paradigm) of cLH rats pre- and post-treatment; assay type: in vivo; conditions: oral diazoxide dissolved in NaOH, 10, 30 or 60 mg per day, three days
Procedure: At the age of 9 weeks, male rats are tested for learned helplessness. Testing consists of an escape paradigm, were 0.8 mA, 60 sec foot-shocks can be interrupted with a lever press. A trial not terminated within 20 seconds is considered a failure, and 10 or more failed trials out of 15 trials are treated as “helpless” phenotype. cNLH animals are exposed to a total of 20 unpredictable, unescapable foot-shocks (0.8 mA, 60 sec) 24 hours prior to testing. Five rats from the cLH rat line described in Example I are provided with orally administered diazoxide dissolved in NaOH over a period of three days. Two animals received 60 mg per day two received 30 mg, and one received 10 mg. Three rats in the control group received no treatment.

[3] = test system: astrocyte glutamate transporters; conditions: Sun et al.; cited from earlier work

Structure (SMILES) | effectiveness in studies of neuroprotection [1] | number of lever presses post-treatment relative to pre-treatment [2] | stimulating the uptake of glutamate by astrocyte glutamate transporters [3]
CO/N=C(\C(=O)N[C@@H]1C(=O)N2C(C(=O)O)=C(CSc3nc(=O)c(=O)[nH]n3C)CS[C@H]12)c1csc(N)n1 [Ceftriaxone] | particularly effective |  | 
CC1=NS(=O)(=O)c2cc(Cl)ccc2N1 [diazoxide] |  | substantial increase in the number of lever presses | shown to be effective
CC(C)NC(C)(C)C(C)C [iptakalim] |  |  | shown to be effective
CC(N/C(=N\C#N)Nc1ccncc1)C(C)(C)C (centres unmarked) [pinacidil] |  |  | shown to be effective
